We go through 1 molecule from patent US4434788A, “Enhancer of anti-tumor effect” (Yamasa Shoyu Kabushiki Kaisha, priority 1980, dated 1984).

In one data set the test system is EMT-6 tumors. Briefly: Radiosensitizing effect on EMT-6 tumor in mouse, cure percentage and TCD50. The following applies: 100 mg/kg i.p. after irradiation; for Cure number/Number treated / Cure percentage: >90 days. Type of data set: in vivo, BALB/c-strain female mice. The procedure:
EMT-6 tumor cells (2×10^5) were inoculated intradermally into the right thighs of BALB/c-strain female mice (8 weeks old). When the tumor sizes reached 5.5 to 8.0 mm after inoculation of the tumor cells, irradiation was locally carried out with 1,000 rad to 2,700 rad of 32 MeV electron beam under no anesthesia, and thereafter 3'-dAdo and 3'-dGuo, each dissolved in physiological saline solution, were administered intraperitoneally in a dose of 100 mg/kg. After the treatments, observation was continued for longer than 90 days, and the cure percentages were determined for comparison with the control group. [formula]
(2) TCD50 =50% Tumor control dose

The subject of data set [1] is potentially lethal damage repair. Briefly: PLDR-inhibiting / radiosensitizing activity (general statements).
A further data set concerns adenosinedeaminase. The following applies: in bodies; cited from earlier work.
The next data set in a line: LD50 (i.p.) of 3'-dAdo. The following applies: in vivo, ip.

Regarding `Nc1ncnc2c1ncn2[C@@H]1O[C@H](CO)C[C@H]1O` [3'-dAdo, 3'-deoxyadenosine, reference compound], the TCD50 (50% Tumor control dose) in the data set with EMT-6 tumors (radiation doses given in rad, control 2400) worked out at 1600 rad. Besides, the TCD50 ratio in the data set with EMT-6 tumors (relative to control 1.0) was determined as 0.67. Moreover, the “Cure number/Number treated” value was 3/18 in the data set on EMT-6 tumors (1,000 rad, control 1/23); 14/29 with EMT-6 tumors (1,500 rad, control 8/44); 11/14 in the data set on EMT-6 tumors (2,100 rad, control 9/24); 10/15 in the data set with EMT-6 tumors (2,700 rad, control 13/28). Moreover, the Cure percentage in the data set on EMT-6 tumors (1,000 rad, control 4%) is 17%; in the data set on EMT-6 tumors (1,500 rad, control 18%), 48%; with EMT-6 tumors (2,100 rad, control 38%), 79%; in the data set on EMT-6 tumors (2,700 rad, control 47%), 67%. Further, the Radiosensitizing activity entry in data set [1] is given as “excellent radiosensitizing activities”. Further, in data set [1] (combination of 3'-dAdo with 2'-deoxycoformycin), the “PLDR-inhibiting ability of 3'-dAdo in combination with 2'-deoxycoformycin” value is “can be strengthened and prolonged”. Further, in the data set on adenosinedeaminase, the Inactivation by adenosinedeaminase entry is “readily inactivated by adenosinedeaminase in bodies”. In addition, in the data set “LD50 (i.p.) of 3'-dAdo”, the LD50 (usually the dose at which mortality reaches 50%) was 280 mg/kg.
